The target of assay [1] is human Gal-3 (hGal-3) (Homo sapiens (Human), UniProt P17931). Nature of the assay: competitive binding assay: biotinylated hGal-3 binding to microplate-adsorbed asialofetuin (ASF). An outline of the steps: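 Compounds serially diluted in DMSO compete with asialofetuin for biotinylated human Gal-3; plates are incubated 3 h at 4 °C, washed, then treated 1 h at 4 °C with streptavidin-peroxidase (80 ng/mL) and developed with ABTS. IC50 values are means of several measurements.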
Sequence of human Gal-3 (hGal-3) (P17931 whole entry): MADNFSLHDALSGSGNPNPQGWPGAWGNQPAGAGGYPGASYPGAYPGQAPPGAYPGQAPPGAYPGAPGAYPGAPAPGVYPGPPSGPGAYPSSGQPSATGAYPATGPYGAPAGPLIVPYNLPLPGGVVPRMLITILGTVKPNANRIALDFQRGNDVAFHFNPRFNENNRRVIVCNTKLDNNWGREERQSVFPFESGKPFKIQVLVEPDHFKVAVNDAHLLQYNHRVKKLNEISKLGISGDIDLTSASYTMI

In assay [2] the target is human Gal-1 (hGal-1) (Homo sapiens (Human), UniProt P09382). The assay can be described thus: competitive binding assay: biotinylated hGal-1 binding to microplate-adsorbed asialofetuin (ASF). The conditions noted are these: Table 15; read-out: IC50 (Galectin-1 inhibition). In outline:
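Biotinylated human Gal-1 (300-1000 ng/mL) competes with serially diluted compound for binding to ASF-coated plates, 3 h at 4° C. Bound protein detected with streptavidin-peroxidase and ABTS substrate (spectrophotometric). IC50 given as mean of several measurements.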

[3] abbreviates: Gal-3 inhibition, binding of biotinylated hGal-3 to ASF, mean values, read-out: IC50.
Setting [4] is: Table 10, 2-OMe-Gal inhibitors, read-out: IC50 (Gal-3 inhibition).
[5] abbreviates: Table 11, read-out: IC50 (Gal-3 inhibition).
[6] abbreviates: Table 5, read-out: IC50 (Gal-3 inhibition).
The mark [7] stands for this setting: Table 9, 2-OMe-Gal inhibitors, read-out: IC50 (Gal-3 inhibition).
Where [8] appears, read: Table 14, read-out: IC50 (Gal-3 inhibition).

The structures appear in SMILES notation. Like-named read-outs stand apart in the source and are kept apart here.

Drawing on patent US12404295B2, “(Hetero)aryl-methyl-thio-beta-D-galactopyranoside derivatives” (Idorsia Pharmaceuticals Ltd, priority 2019, dated 2025), this text covers IC50 for 17 molecules.

Sequence of human Gal-1 (hGal-1) (P09382 whole entry): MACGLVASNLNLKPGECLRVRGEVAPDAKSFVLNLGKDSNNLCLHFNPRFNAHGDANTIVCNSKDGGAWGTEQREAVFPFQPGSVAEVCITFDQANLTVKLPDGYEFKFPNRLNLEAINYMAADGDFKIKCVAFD

With `CCC(O)C(S[C@@H]1O[C@H](CO)[C@H](O)[C@H](n2cc(-c3cc(F)c(F)c(F)c3)nn2)[C@H]1O)c1ccccc1C(F)(F)F` (stereo partly drawn) [Example 2.60.112., (2S,3R,4S,5R,6R)-2-((2-Hydroxy-1-(2-(trifluoromethyl)phenyl)butyl)thio)-6-(hydroxymethyl)-4-(4-(3,4,5-trifluorophenyl)-1H-1,2,3-triazol-1-yl)tetrahydro-2H-pyran-3,5-diol], the IC50 came to 230 nM in assay [1] (setting [3]) and 3500 nM in assay [2].
In the case of `CO[C@@H]1[C@@H](n2cc(-c3cc(F)c(F)c(F)c3)nn2)[C@@H](O)[C@@H](CO)O[C@H]1S[C@H](c1noc(C2CC2)c1CC(C)C)C1(O)CCC(F)(F)CC1` [Example 2.44.131R.I., (2R,3R,4S,5R,6S)-6-(((R)-(5-Cyclopropyl-4-isobutylisoxazol-3-yl)(4,4-difluoro-1-hydroxycyclohexyl)methyl)thio)-2-(hydroxymethyl)-5-methoxy-4-(4-(3,4,5-trifluorophenyl)-1H-1,2,3-triazol-1-yl)tetrahydro-2H-pyran-3-ol], the half-maximal inhibitory concentration (IC50) in assay [1] (setting [4]) was 130 nM; in assay [2], 100 nM.
For the molecule `CO[C@@H]1[C@@H](n2cc(-c3cc(F)c(F)c(F)c3)nn2)[C@@H](O)[C@@H](CO)O[C@H]1S[C@H](c1noc(C2CC2)c1C)C1(O)CCC(F)(F)CC1` [Example 2.44.145R.I., (2R,3R,4S,5R,6S)-6-(((R)-(5-Cyclopropyl-4-methylisoxazol-3-yl)(4,4-difluoro-1-hydroxycyclohexyl)methyl)thio)-2-(hydroxymethyl)-5-methoxy-4-(4-(3,4,5-trifluorophenyl)-1H-1,2,3-triazol-1-yl)tetrahydro-2H-pyran-3-ol], the half-inhibitory concentration (IC50) is 250 nM in assay [1] (setting [5]) and 1200 nM in assay [2].
In the case of `OC[C@H]1O[C@@H](SC(c2ncccc2C2CC2)C2(O)CCC(F)(F)CC2)[C@H](O)[C@@H](n2cc(-c3cc(F)c(F)c(F)c3)nn2)[C@H]1O` (stereo partly drawn) [Example 2.44.134., (2S,3R,4S,5R,6R)-2-(((3-Cyclopropylpyridin-2-yl)(4,4-difluoro-1-hydroxycyclohexyl)methyl)thio)-6-(hydroxymethyl)-4-(4-(3,4,5-trifluorophenyl)-1H-1,2,3-triazol-1-yl)tetrahydro-2H-pyran-3,5-diol], the figures for the IC50 in assay [1] (setting [3]) and in assay [2] were 70 nM and 140 nM, respectively.
As to `Cc1ccccc1[C@@H](S[C@@H]1O[C@H](CO)[C@H](O)[C@H](n2cc(-c3cc(F)c(F)c(F)c3)nn2)[C@H]1O)C1(O)CCOCC1` [Example 2.41.102R.], the half-inhibitory concentration (IC50) in assay [1] (setting [6]) turned out to be 40 nM; in assay [2], 210 nM.
On to `CO[C@@H]1[C@@H](n2cc(-c3cc(F)c(F)c(F)c3)nn2)[C@@H](O)[C@@H](CO)O[C@H]1S[C@@H](c1nc(C)c(C)nc1C)C1(O)CCC(F)(F)CC1` [Example 2.44.119S.I., (2R,3R,4S,5R,6S)-6-(((S)-(4,4-Difluoro-1-hydroxycyclohexyl)(3,5,6-trimethylpyrazin-2-yl)methyl)thio)-2-(hydroxymethyl)-5-methoxy-4-(4-(3,4,5-trifluorophenyl)-1H-1,2,3-triazol-1-yl)tetrahydro-2H-pyran-3-ol], for which the IC50 came out at 5110 nM in assay [1] (setting [5]) and 28600 nM in assay [2].
With `CO[C@@H]1[C@@H](n2cc(-c3cc(F)c(F)c(F)c3)nn2)[C@@H](O)[C@@H](CO)O[C@H]1S[C@H](c1ncccc1Cl)C1(O)CCC(F)(F)CC1` [Example 2.44.137R.I., (2R,3R,4S,5R,6S)-6-(((R)-(3-Chloropyridin-2-yl)(4,4-difluoro-1-hydroxycyclohexyl)methyl)thio)-2-(hydroxymethyl)-5-methoxy-4-(4-(3,4,5-trifluorophenyl)-1H-1,2,3-triazol-1-yl)tetrahydro-2H-pyran-3-ol], the IC50 came to 70 nM in assay [1] (setting [7]) and 720 nM in assay [2].
For the molecule `Cc1conc1[C@@H](S[C@@H]1O[C@H](CO)[C@H](O)[C@H](n2cc(-c3cc(F)c(F)c(F)c3)nn2)[C@H]1O)C1(O)CCC(F)(F)CC1` [Example 2.44.120R., (2S,3R,4S,5R,6R)-2-(((R)-(4,4-Difluoro-1-hydroxycyclohexyl)(4-methylisoxazol-3-yl)methyl)thio)-6-(hydroxymethyl)-4-(4-(3,4,5-trifluorophenyl)-1H-1,2,3-triazol-1-yl)tetrahydro-2H-pyran-3,5-diol], the results for the half-maximal inhibitory concentration (IC50) in assay [1] (setting [6]) and in assay [2] were 110 nM and 380 nM, respectively.
Consider `CO[C@@H]1[C@@H](n2cc(-c3cc(F)c(Br)c(F)c3)nn2)[C@@H](O)[C@@H](CO)O[C@H]1SC(c1ncccc1C)C1(O)CCC(F)(F)CC1` (stereo partly drawn) [Example 18.44.126.I., (2R,3R,4S,5R,6S)-4-(4-(4-Bromo-3,5-difluorophenyl)-1H-1,2,3-triazol-1-yl)-6-(((4,4-difluoro-1-hydroxycyclohexyl)(3-methylpyridin-2-yl)methyl)thio)-2-(hydroxymethyl)-5-methoxytetrahydro-2H-pyran-3-ol], for which the 50% inhibitory concentration (IC50) in assay [1] (setting [8]) turned out to be 120 nM; in assay [2] it was 3470 nM.
Consider `Cc1ccccc1C(S[C@@H]1O[C@H](CO)[C@H](O)[C@H](n2cc(-c3cc(F)c(F)c(F)c3)nn2)[C@H]1O)C1(O)CCCCC1` (stereo partly drawn) [Example 2.39.102., (2S,3R,4S,5R,6R)-2-(((1-Hydroxycyclohexyl)(o-tolyl)methyl)thio)-6-(hydroxymethyl)-4-(4-(3,4,5-trifluorophenyl)-1H-1,2,3-triazol-1-yl)tetrahydro-2H-pyran-3,5-diol], for which the IC50 in assay [1] (setting [6]) turned out to be 90 nM; in assay [2], 1600 nM.
On to `Cc1ccnnc1C(S[C@@H]1O[C@H](CO)[C@H](O)[C@H](n2cc(-c3cc(F)c(F)c(F)c3)nn2)[C@H]1O)C1(O)CCC(F)(F)CC1` (stereo partly drawn) [Example 2.44.135., (2S,3R,4S,5R,6R)-2-(((4,4-Difluoro-1-hydroxycyclohexyl)(4-methylpyridazin-3-yl)methyl)thio)-6-(hydroxymethyl)-4-(4-(3,4,5-trifluorophenyl)-1H-1,2,3-triazol-1-yl)tetrahydro-2H-pyran-3,5-diol], for which the IC50 in assay [1] (setting [3]) is 70 nM; in assay [2], 450 nM.
On to `CO[C@@H]1[C@@H](n2cc(-c3ccc(C)c(F)c3F)nn2)[C@@H](O)[C@@H](CO)O[C@H]1SC(c1ncccc1C)C1(O)CCC(F)(F)CC1` (stereo partly drawn) [Example 23.44.126.I., (2R,3R,4S,5R,6S)-6-(((4,4-Difluoro-1-hydroxycyclohexyl)(3-methylpyridin-2-yl)methyl)thio)-4-(4-(2,3-difluoro-4-methylphenyl)-1H-1,2,3-triazol-1-yl)-2-(hydroxymethyl)-5-methoxytetrahydro-2H-pyran-3-ol], for which the results for the 50% inhibitory concentration (IC50) in assay [1] (setting [8]) and in assay [2] were 50 nM and 550 nM, respectively.
`CO[C@@H]1[C@@H](n2cc(-c3cc(F)c(F)c(F)c3)nn2)[C@@H](O)[C@@H](CO)O[C@H]1S[C@H](c1ncccc1C)C1(O)CCOCC1` [Example 2.41.126R.I., (2R,3R,4S,5R,6S)-2-(Hydroxymethyl)-6-(((R)-(4-hydroxytetrahydro-2H-pyran-4-yl)(3-methylpyridin-2-yl)methyl)thio)-5-methoxy-4-(4-(3,4,5-trifluorophenyl)-1H-1,2,3-triazol-1-yl)tetrahydro-2H-pyran-3-ol]: the results for the half-maximal inhibitory concentration (IC50) in assay [1] (setting [7]) and in assay [2] were 60 nM and 800 nM, respectively.
In the case of `CC(C)Cc1ccccc1[C@@H](S[C@@H]1O[C@H](CO)[C@H](O)[C@H](n2cc(-c3cc(F)c(F)c(F)c3)nn2)[C@H]1O)C(C)(C)O` [Example 2.31.107R., (2S,3R,4S,5R,6R)-2-(((R)-2-hydroxy-1-(2-isobutylphenyl)-2-methylpropyl)thio)-6-(hydroxymethyl)-4-(4-(3,4,5-trifluorophenyl)-1H-1,2,3-triazol-1-yl)tetrahydro-2H-pyran-3,5-diol], the results for the IC50 in assay [1] (setting [3]) and in assay [2] were 200 nM and 300 nM, respectively.
Take `Cc1nc(C)c(C(S[C@@H]2O[C@H](CO)[C@H](O)[C@H](n3cc(-c4cc(F)c(F)c(F)c4)nn3)[C@H]2O)C(C)(C)O)nc1C` (stereo partly drawn) [Example 2.31.119., (2S,3R,4S,5R,6R)-2-((2-Hydroxy-2-methyl-1-(3,5,6-trimethylpyrazin-2-yl)propyl)thio)-6-(hydroxymethyl)-4-(4-(3,4,5-trifluorophenyl)-1H-1,2,3-triazol-1-yl)tetrahydro-2H-pyran-3,5-diol]: the 50% inhibitory concentration (IC50) was determined as 230 nM in assay [1] (setting [3]) and 1750 nM in assay [2].
With `CO[C@@H]1[C@@H](n2cc(-c3cc(F)c(F)c(F)c3)nn2)[C@@H](O)[C@@H](CO)O[C@H]1S[C@@H](c1c(C)cnn1C)C1(O)CCC(F)(F)CC1` [Example 2.44.136S.I., (2R,3R,4S,5R,6S)-6-(((S)-(4,4-Difluoro-1-hydroxycyclohexyl)(1,4-dimethyl-1H-pyrazol-5-yl)methyl)thio)-2-(hydroxymethyl)-5-methoxy-4-(4-(3,4,5-trifluorophenyl)-1H-1,2,3-triazol-1-yl)tetrahydro-2H-pyran-3-ol], the half-maximal inhibitory concentration (IC50) in assay [1] (setting [4]) was 15600 nM; in assay [2], over 100000 nM.
For `Cc1nc(C)c([C@H](S[C@@H]2O[C@H](CO)[C@H](O)[C@H](n3cc(-c4cc(F)c(F)c(F)c4)nn3)[C@H]2O)C2(O)CCOCC2)nc1C` [Example 2.41.119S., (2R,3R,4S,5R,6S)-2-(Hydroxymethyl)-6-(((S)-(4-hydroxytetrahydro-2H-pyran-4-yl)(3,5,6-trimethylpyrazin-2-yl)methyl)thio)-4-(4-(3,4,5-trifluorophenyl)-1H-1,2,3-triazol-1-yl)tetrahydro-2H-pyran-3,5-diol], the figures for the IC50 in assay [1] (setting [6]) and in assay [2] were 2990 nM and 19900 nM, respectively.

For orientation: IC50 means the concentration at which inhibition is half-maximal.
